Reference: PMC2748256 (ACS chemical biology, 2009)

Biological target: DM2 (RNA7)-MBNL-1 complex
Assay type: biochemical
Conditions: ligand added to well containing immobilized RNA7, then MBNL-1

## C#CCCCC(=O)NC[C@@H]1O[C@@H](O[C@H]2[C@H](O)[C@@H](O[C@@H]3O[C@@H](CO)[C@H](O)[C@@H](N)[C@@H]3O)[C@H](N)C[C@@H]2N)[C@@H](O)[C@H](O)[C@H]1O [Compound 1, 6′-N-5-hexynoate kanamycin A]
  IC50: 220 µM
